Laboratory results taken from patent US20130143236A1, “METHOD FOR DETERMINING SENSITIVITY OF TUMOR CELLS TO DASATINIB AND COMPUTER PROGRAM” (priority 2011, published 2013).

Test system: tyrosine kinase in the measurement sample (cell membrane fraction of breast cancer cell lines)
Assay: Tyrosine kinase activity of cell membrane fraction in presence/absence of tyrosine kinase inhibitor (Poly-Glu4-Tyr substrate, ELISA chemiluminescence)
Format: biochemical
Details: 25 μM kinase inhibitor, 25 μM ATP, activity with inhibitor / without
Method: 500 μl of NP40(−) solubilized buffer (20 mM HEPES (pH 7.4)), 10 (w/v) % glycerol, 0.2% protease inhibitor cocktail (#P8340: Sigma-Aldrich (product composition: 104 mM AEBSF, 80 μM aprotinin, 4 mM bestatin, 1.4 mM E-64, 2 mM leupeptin, 1.5 mM Pepstatin A), 50 mM NaF and 200 μM Na3VO4) was added to the cell pellet, followed by stirring for 2 seconds three times using a vortex mixer. After being allowed to stand for 10 minutes, the soluble fraction was removed by centrifugal operation (at 20000×g, for 30 minutes, at 4° C.). The obtained pellet was resuspended in 500 μl of NP40(−) solubilized buffer, the soluble fraction was again removed by centrifugal operation (at 20000×g, for 20 minutes, at 4° C.), and the pellet was washed. The pellet was resuspended by adding 500 μl of NP40(+) solubilized buffer (a buffer prepared by adding NP-40 to the NP40(−) solubilized buffer at a final concentration of 1% to the pellet, pipetting 50 times, and vortexing for 2 seconds three times. After being allowed to stand for 10 minutes, a cell membrane fraction containing a membrane protein was obtained by centrifugal operation (at 20000×g, for 40 minutes, at 4° C.). The protein concentration of the obtained cell membrane fraction was measured by DC protein assay (#500-0116 JA: Bio-Rad). Then, the cell membrane fraction was used as a measurement sample for the following experiments. The measurement sample was frozen with liquid nitrogen and stored at −80° C. before use for the following kinase activity measurement.
NeutrAvidin Coated Plates (HBC) (96-well white plate; #15509: Pierce) were washed three times with 300 μl of TBS-T (20 mM Tris-HCl (pH 7.4)), 150 mM NaCl, 0.1% tween). Then, 100 μl of Poly-Glu4-Tyr biotin conjugate (#12440: Upstate) which had been diluted to 1 μg/ml with TBS (20 mM Tris-HCl (pH 7.4), 150 mM NaCl) was added to the wells. After shaking at 37° C. and 400 rpm for 90 minutes, the wells were washed with 300 μl of TBS-T three times and a measuring plate was obtained.
The measurement sample was diluted with a kinase buffer (20 mM HEPES (pH 7.4), 25 mM MgCl2, 1.25 mM MnCl2, 250 μM Na3VO4, 12.5 (w/v) % glycerol) so as to adjust the protein concentration to 6.25 μg/ml. The diluted measurement sample was transferred to wells of a 96 well V bottom plate. As the tyrosine kinase inhibitors, Src kinase inhibitor I known as an inhibitor of Src (CAS No. 179248-59-0: Calbiochem), PP1 (CAS No. 172889-26-8: Biomol), and Src kinase inhibitor II (Calbiochem) represented by Structural formula (I) below were used. A DMSO solution (inhibitor concentration: 5 mM) containing these inhibitors (Inhibitors 1 to 10 shown in Table 6) was added to the wells at a ratio of 1:160 based on the diluted measurement sample, followed by mixing thereof. As the control, DMSO was added to the diluted measurement sample at the same ratio as the solution of the inhibitor.
After addition of each of the tyrosine kinase inhibitors, a mixed solution of the measurement sample and the inhibitor was allowed to stand at room temperature for 10 minutes. 40 μl of the mixed solution was transferred to wells of the measuring plate and 10 μl of an ATP solution (20 mM HEPES (pH 7.4), […]) as the phosphate group donor was added to the wells. The composition of the solution in the wells is as follows: protein concentration: 5 μg/ml, 20 mM HEPES (pH 7.4), 20 mM MgCl2, 1 mM MnCl2, 200 μM Na3VO4, 10 (w/v) % glycerol, and 25 μM ATP, 25 μM kinase inhibitor.
After shaking the measuring plate at 37° C. and 400 rpm for 60 minutes, the solution was removed from the measuring plate, and the wells were washed with 300 μl of TBS-T three times. 100 μl of Starting Block T20 (TBS) (#37543: Pierce) as a blocking solution was added to the wells, followed by blocking at 37° C. and 400 rpm for 10 minutes. The blocking solution was removed from the measuring plate. […]

[1] = AU565 membrane fraction (dasatinib-insensitive cell line)
[2] = BT-20 membrane fraction (dasatinib-sensitive cell line)
[3] = BT-474 membrane fraction (dasatinib-insensitive cell line)
[4] = BT-549 membrane fraction (dasatinib-insensitive cell line)
[5] = HCC1419 membrane fraction (dasatinib-insensitive cell line)
[6] = HCC1428 membrane fraction (dasatinib-insensitive cell line)
[7] = HCC1806 membrane fraction (dasatinib-sensitive cell line)
[8] = HCC1954 membrane fraction (dasatinib-sensitive cell line)
[9] = HS578T membrane fraction (dasatinib-sensitive cell line)
[10] = MCF7 membrane fraction (dasatinib-insensitive cell line)
[11] = MDA-MB-157 membrane fraction (dasatinib-sensitive cell line)
[12] = MDA-MB-231 membrane fraction (dasatinib-sensitive cell line)
[13] = MDA-MB-435S membrane fraction (dasatinib-insensitive cell line)
[14] = MDA-MB-436 membrane fraction (dasatinib-insensitive cell line)
[15] = MDA-MB-453 membrane fraction (dasatinib-insensitive cell line)
[16] = MDA-MB-468 membrane fraction (dasatinib-insensitive cell line)
[17] = SK-BR-3 membrane fraction (dasatinib-insensitive cell line)
[18] = ZR-75-1 membrane fraction (dasatinib-insensitive cell line)
[19] = ZR-75-30 membrane fraction (dasatinib-insensitive cell line)

SMILES	RA (relative activity value) [1]	RA (relative activity value) [2]	RA (relative activity value) [3]	RA (relative activity value) [4]	RA (relative activity value) [5]	RA (relative activity value) [6]	RA (relative activity value) [7]	RA (relative activity value) [8]	RA (relative activity value) [9]	RA (relative activity value) [10]	RA (relative activity value) [11]	RA (relative activity value) [12]	RA (relative activity value) [13]	RA (relative activity value) [14]	RA (relative activity value) [15]	RA (relative activity value) [16]	RA (relative activity value) [17]	RA (relative activity value) [18]	RA (relative activity value) [19]
Cc1ccc(-c2nn(C(C)(C)C)c3ncnc(N)c23)cc1 [PP1, 1-(1,1-dimethylethyl)-1-(4-methylphenyl)-1H-pyrazolo-[3,4-d]-pyrimidine-4-amine]	0.302	0.309	0.496	0.193	0.446	0.451	0.160	0.292	0.194	0.295	0.173	0.134	0.313	0.403	0.448	0.322	0.260	0.314	0.507
COc1cc2ncnc(Nc3ccc(Oc4ccccc4)cc3)c2cc1OC [Src kinase inhibitor I, 4-(4′-phenoxylanilino)-6,7-dimethoxyquinazoline]	0.632	0.434	0.624	0.394	0.637	0.563	0.329	0.535	0.418	0.508	0.397	0.364	0.551	0.551	0.837	0.190	0.567	0.442	0.627
COc1ccc2c(c1)cc(C)c1nnc(SCC(=O)Nc3cccc(C(C)=O)c3)n12 [Src kinase inhibitor II]	0.731	0.668	0.620	0.528	0.615	0.720	0.476	0.644	0.709	0.307	0.715	0.426	0.500	0.514	0.549	0.523	0.414	0.697	0.596
